# Laboratory results as given in patent US11135322B2, “Radiofluorination method” (GE HEALTHCARE LIMITED, priority 2012, dated 2021).
# Test: Hydrolytic stability of the metal halide complexes in aqueous solution (19F and 71Ga NMR studies)
# Format: physicochemical
# Excerpt: ^19F and ^71Ga NMR studies show complete conversion to [GaF3(Me3-tacn)]. Furthermore they confirm that the structure of the complex is retained in solution. […] The structure has also been confirmed crystallographically (FIG. 2). This provides clear evidence that direct incorporation of fluoride into the coordination sphere of carefully selected metal ions is entirely feasible, as well as establishing the high stability of the resulting fluoro complexes, even in aqueous solution.
substance,measurement,setting,value
[GaF3(Me3-tacn)].4H2O,resistance to hydrolysis / hydrolytic stability,aqueous solution,resistant to hydrolysis
same,stability relative to analogous halide or metal complexes,comparison with analogues,considerably more stable than the chloride and bromide analogues
